Experimental data published in US20100034739A1, “Fungus-Specific Imaging Agents” (priority 2006, published 2010).
Positions of bridges follow the written chain, without caps; N, C: chain ends. No end group written: not given here. *: point of attachment. DOTA = O=C(O)CN1CCN(CC(=O)O)CCN(CC(=O)*)CCN(CC(=O)O)CC1

What was measured:
Aspergillus = experiment: autoradiography and GMS histology of excised lung slices; assay type: in vivo, mice
Experimental: FIG. 5B illustrates autoradiography of the lungs of mice injected with the ^68Ga-labeled peptide of FIG. 4.
FIG. 6 illustrates histology and autoradiography of excised lung tissue from a mouse injected with Ga-68-labeled peptide of FIG. 4. The mouse had acute pulmonary aspergillosis.
Lungs were removed from the mice after the 90 minute imaging session and snap frozen, then cut into 20 μm slices. These slices were air-dried and exposed to a phosphors screen. The screen was exposed for 10 minutes.
To confirm that tissue labeled with the imaging agent was actually infected with Aspergillus, histology of lung tissue labeled by the imaging agent in an infected mouse was performed. The corresponding gamma scintogram and histology data are show in FIG. 6. […] Note the black-stained organisms correlated with distribution of radioactivity in autoradiography (lower left image) of excised lung tissue from a mouse injected with Ga-68-labeled peptide of FIG. 4.

[1] = tested on: acute pulmonary aspergillosis; experiment: μ-PET imaging of mice with acute pulmonary aspergillosis and normal mice; assay type: in vivo; settings: μ-PET at 30 and 90 minutes, i.v. approx. 200 μCi per mouse, not seen in normal mice
Experimental: FIG. 5A illustrates μ-PET images of mice injected with the ^68Ga-labeled peptide of FIG. 4. […] Arrows indicate accumulated imaging agent.
Mice weighing approximately 20 g each were injected intravenously with the imaging agent of FIG. 4 to provide radioisotope at a level of approximately 200 μCi per mouse. μ-PET imaging was performed at 30 and 90 minutes after injection. Control mice had no fungal infection, while infected mice had acute pulmonary aspergillosis. μ-PET images of normal and infected mice are shown in FIG. 5A. Arrows in FIG. 5A indicate the accumulated radiotracer.

[2] = tested on: acute pulmonary aspergillosis; settings: i.v. approx. 80 μCi per mouse
Experimental: FIG. 2 illustrates gamma scintography of mice injected with the ^111In-labeled peptide of FIG. 1. […] Arrows indicate radiotracer in the lung.
Gamma scintography was performed at 30 and 120 minutes after injection. […] Experiments were performed 1 to 2 days after infection. The same mouse is shown for each test type at 30 and 120 minutes. Arrows in FIG. 2 indicate the accumulated radiotracer. Radiotracer accumulation in the lungs of the control mouse was not visible at 120 minutes after injection. Increased radiotracer could be seen as little as 5 minutes after injection.

hyphae of Aspergillus = settings: Lionakis et al. 2005; cited from earlier work
hyphae of Rhizopus = settings: Lionakis et al. 2005; cited from earlier work

^68Ga-DOTA-CGGRLGPFC ({DOTA}-CGGRLGPFC; not fully specified (bridges); also: 68Ga chelated by DOTA, cyclic, type of ring bond not given here) [imaging agent of FIG. 4]
radioactivity in lung slices of the infected mouse (Aspergillus; autoradiography of 20 μm slices, lungs removed after the 90 minute imaging session, infected mouse): Heterogeneous distribution of radioactivity
radioactivity in lung slices of the normal mouse (Aspergillus; autoradiography of 20 μm slices, lungs removed after the 90 minute imaging session, normal mouse): Little radioactivity
relation of GMS-stained Aspergillus organisms to distribution of radioactivity in autoradiography (Aspergillus; excised lung tissue of an infected mouse, FIG. 6): correlated
radiotracer accumulation in the lungs of infected mice [1]: can be clearly seen

^111In-DTPA-Benzyl-NH-Succinic Acid-CGGRLGPFC [imaging agent of FIG. 1]
radiotracer accumulation in the lungs of the control mouse ([2]; control mouse without fungal infection, 120 minutes after injection): not visible
time after injection at which increased radiotracer could be seen ([2]; gamma scintography): 5 min

c(CGGRLGPFC) (disulfide 1-9 (inferred))
binding in vitro to the hyphae of Aspergillus (hyphae of Aspergillus): bind in vitro
binding in vitro to the hyphae of Rhizopus (hyphae of Rhizopus): bind in vitro

c(CWGHSRDEC) (disulfide 1-9 (inferred))
binding in vitro to the hyphae of Aspergillus (hyphae of Aspergillus): bind in vitro
binding in vitro to the hyphae of Rhizopus (hyphae of Rhizopus): bind in vitro
